Measured values published in patent US7820714B2, “Siglec inhibitors” (priority 2001, dated 2010).

How the values were obtained:
Siglec-1 (sialoadhesin) = Siglec-1 (sialoadhesin) (Mus musculus, UniProt Q62230); experiment: Hapten inhibition assay, Siglec-1 (sialoadhesin); assay type: binding; details: for Siglec-1 (sialoadhesin) rIP: quotient IC50 reference compound / IC50 compound
Siglec-2 (human CD22) = target: T1, Siglec-2 (human CD22) (Homo sapiens, UniProt P20273); experiment: Hapten inhibition assay, Siglec-2 (human CD22); assay type: binding; details: for Siglec-2 (human CD22) rIP: quotient IC50 reference compound / IC50 compound; for IC50: unit inferred
T1 sequence (P20273 20-138 limits assumed): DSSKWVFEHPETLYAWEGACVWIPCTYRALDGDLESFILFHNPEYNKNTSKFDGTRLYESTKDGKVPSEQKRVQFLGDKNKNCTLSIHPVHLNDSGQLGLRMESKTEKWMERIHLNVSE
Method: (§2) Preferably, the inhibition can be determined by a Hapten inhibition test. […] After overnight incubation at 4° C. the unbound complexes are removed by washing the cells and the bound radioactivity is determined. From the data obtained in this way, the concentrations are found which lead to 50% inhibition of the binding (IC50 values) (5, 6). Specially preferred during the Hapten inhibition test was 10 μl of the complex solution with an activity of 10^3 Bq ^125I mixed with the same volume of a solution of the substance to be investigated (concentrated three times) and incubated at 4° C. for one hour. Then followed the addition of 10 μl of a suspension of target cells, preferably 0.25 to 0.5% of human erythrocytes and incubation overnight at 4° C. The unbound radioactivity is removed by washing the cells five times with 200 μl of washing buffer, preferably phosphate-buffered saline with 0.1% (W/V) bovine serum albumin, and the cell-bound activity is determined with a γ-counter. […] The inhibition is determined in that the value without inhibitor is set to 0% and that with the sialidase-treated cells is set equal to 100%.
(§3) The IC50 value is the siglec inhibitor concentration which leads to 50% inhibition in the binding in the Hapten inhibition assay.

Siglec-2 (murine CD22) = target: T2, Siglec-2 (murine CD22) (Mus musculus, UniProt P35329); experiment: Hapten inhibition assay, Siglec-2 (murine CD22); assay type: binding
T2 sequence (P35329 22-148 limits assumed): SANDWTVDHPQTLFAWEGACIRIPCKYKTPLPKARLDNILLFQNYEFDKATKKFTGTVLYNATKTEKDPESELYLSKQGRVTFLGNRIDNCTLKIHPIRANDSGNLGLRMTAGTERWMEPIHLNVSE
Method: as §2, §3

Daudi cells = experiment: Ca2+ concentration in Daudi cells stimulated with anti-IgM; assay type: cell-based; details: Daudi cells stimulated with anti-IgM in the presence of the compound
Excerpt: (§1) The compound BPC-Neu5Ac (shown below) was used according to known methods in test series for the investigation of the selectivity and the activity. […] This impairment with regard to the binding of ligands leads to an incomplete activation of the intracellular inhibitor domain of CD22.

[1] = test system: primary B-lymphocytes from human blood; experiment: Ca2+ concentration in primary B-lymphocytes stimulated with anti-IgM; assay type: cell-based
Excerpt: as §1

Siglec-4a (MAG) = target: T3, Siglec-4a (MAG) (UniProt P20917); experiment: Hapten inhibition assay, Siglec-4a (MAG); details: for Siglec-4a (MAG) rIP: quotient IC50 reference compound / IC50 compound; for IC50: read-out: Siglec-4a (MAG) IC50, unit inferred
T3 sequence (P20917 1-627): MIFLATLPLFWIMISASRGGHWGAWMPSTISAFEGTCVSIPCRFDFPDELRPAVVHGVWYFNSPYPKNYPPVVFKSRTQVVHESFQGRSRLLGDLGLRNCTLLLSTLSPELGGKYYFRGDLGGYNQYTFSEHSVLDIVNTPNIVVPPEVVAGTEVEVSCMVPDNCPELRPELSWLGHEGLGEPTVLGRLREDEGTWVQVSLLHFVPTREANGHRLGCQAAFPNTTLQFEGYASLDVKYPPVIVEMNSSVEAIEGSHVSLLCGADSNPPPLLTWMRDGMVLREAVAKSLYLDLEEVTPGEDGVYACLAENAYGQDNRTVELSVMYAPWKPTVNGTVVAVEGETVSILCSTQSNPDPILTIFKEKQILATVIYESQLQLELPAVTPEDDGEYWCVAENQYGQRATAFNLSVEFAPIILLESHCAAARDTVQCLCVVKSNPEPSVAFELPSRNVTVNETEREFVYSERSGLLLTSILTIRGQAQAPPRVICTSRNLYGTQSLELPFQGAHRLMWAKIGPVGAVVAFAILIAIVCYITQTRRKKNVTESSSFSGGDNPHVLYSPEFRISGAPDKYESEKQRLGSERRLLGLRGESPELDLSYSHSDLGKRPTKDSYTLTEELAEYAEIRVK

[2] = at the concentration of the IC50 bound, meaning not defined in the patent

Chain of Siglec-1 (sialoadhesin) (Q62230 20-136 limits assumed): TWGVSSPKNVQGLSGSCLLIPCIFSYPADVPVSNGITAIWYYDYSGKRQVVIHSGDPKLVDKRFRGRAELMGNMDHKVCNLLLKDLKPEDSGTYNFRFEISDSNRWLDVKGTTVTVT

| SMILES | Siglec-1 (sialoadhesin) rIP (Siglec-1 (sialoadhesin)) | IC50 (Siglec-1 (sialoadhesin); unit inferred) [mM] | selectivity of affinity for hCD22 (Siglec-2 (human CD22); in words) | Siglec-2 (human CD22) rIP (Siglec-2 (human CD22)) | binds stronger to siglec-2 than the reference compound (Siglec-2 (human CD22); relative to 2-alpha-methyl-5-N-acetyl-neuraminic acid) | IC50 (Siglec-2 (human CD22)) [µM] | Siglec-2 (murine CD22) rIP (Siglec-2 (murine CD22); quotient IC50 reference compound / IC50 compound) | IC50 (Siglec-2 (murine CD22); unit inferred) [mM] | Ca2+ concentration (Daudi cells) | Ca2+ concentration [1] | Siglec-4a (MAG) rIP (Siglec-4a (MAG)) | IC50 (Siglec-4a (MAG)) [µM] | Siglec-1 (sialoadhesin) percentage in parentheses below the IC50 bound (Siglec-1 (sialoadhesin); [2]) | IC50 (Siglec-1 (sialoadhesin); bounds given in mM) [mM] | Siglec-2 (murine CD22) percentage in parentheses below the IC50 bound (Siglec-2 (murine CD22); [2]) | IC50 (Siglec-2 (murine CD22); bounds given in mM) [mM] |
| --- | --- | --- | --- | --- | --- | --- | --- | --- | --- | --- | --- | --- | --- | --- | --- | --- |
| CO[C@]1(C(=O)O)CC(O)[C@@H](NC(C)=O)C([C@@H](O)[C@H](O)CNC(=O)c2ccc(-c3ccccc3)cc2)O1 (stereo partly drawn) [Methyl-α-9-N-(biphenyl-4-carbonyl)-amino-9-desoxy-Neu5Ac] | 13 | 0.052 | very remarkable selective affinity for hCD22 | 150 | approximately 150 times | 4 | 5.0 | 1.22 | rise in the Ca^2+ concentration | clearly increased Ca^2+ concentration | 218 | 22 | – | – | – | – |
| CO[C@]1(C(=O)O)C[C@H](O)[C@@H](NC(C)=O)[C@H]([C@H](O)[C@H](O)CNC(=O)c2ccc(NC(C)=O)cc2)O1 [Methyl-α-9-N-(acetamidobenzoyl)-amino-9-desoxy-Neu5Ac] | 3.0 | 0.295 | – | 2.4 | – | 580 | – | 1.03 | – | – | 77 | 62 | – | – | – | – |
| COC1(C(=O)O)CC(O)C(NC(C)=O)C(C(O)C(O)CNC(=O)c2ccc3ccccc3n2)O1 (stereo not drawn) [Methyl-α-9-N-(chinaldine-2-carbonyl)-amino-9-desoxy-Neu5Ac] | <<0.2 | – | – | – | – | 41 | – | – | – | – | 54 | 87 | (100%) | > 2.5 | (100%) | > 10 |
